Assays:
Format in all cases: in vivo
[1] = system: sicklepod (Cassia obtusifolia, CASOB); experiment: Pre-emerge test, greenhouse herbicide activity screening; conditions: Senna obtusifolia, pre-emergence, 336 h, pre-emerge, phytotoxicity rating 0-100 at 14 days after application, read-out: Pre-emerge Herbicidal Activity CASOB; for pest or weed control at 63 g/ha: rate 63 g ai/ha; for pest or weed control at 250 g/ha: rate 250 g ai/ha
Outline: (§1)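 Visual ratings on a 0-100 scale (0 no damage, 100 all plants dead) were taken at 14 days after treatment. Rates of 15-1000 g ai/ha in acetone, 187 l/ha, were sprayed onto soil one day after planting (pre-emerge) or onto 2-3 leaf plants with 0.25% v/v surfactant (post-emerge).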

[2] = system: green foxtail (Setaria viridis, SETVI); experiment: as above; conditions: Setaria viridis, pre-emergence, 336 h, pre-emerge, phytotoxicity rating 0-100 at 14 days after application, read-out: Pre-emerge Herbicidal Activity SETVI; for pest or weed control at 63 g/ha: rate 63 g ai/ha; for pest or weed control at 250 g/ha: rate 250 g ai/ha
Outline: as §1

[3] = system: velvetleaf (Abutilon theophrasti, ABUTH); experiment: as above; conditions: Abutilon theophrasti, pre-emergence, 336 h, pre-emerge, phytotoxicity rating 0-100 at 14 days after application, read-out: Pre-emerge Herbicidal Activity ABUTH; for pest or weed control at 63 g/ha: rate 63 g ai/ha; for pest or weed control at 250 g/ha: rate 250 g ai/ha
Outline: as §1

[4] = system: large crabgrass (Digitaria sanguinalis, DIGSA); experiment: as above; conditions: Digitaria sanguinalis, pre-emergence, 336 h, pre-emerge, phytotoxicity rating 0-100 at 14 days after application, read-out: Pre-emerge Herbicidal Activity DIGSA; for pest or weed control at 63 g/ha: rate 63 g ai/ha; for pest or weed control at 250 g/ha: rate 250 g ai/ha
Outline: as §1

[5] = system: johnsongrass (Sorghum halepense, SORHA); experiment: as above; conditions: Sorghum halepense, pre-emergence, 336 h, pre-emerge, phytotoxicity rating 0-100 at 14 days after application, read-out: Pre-emerge Herbicidal Activity SORHA; for pest or weed control at 63 g/ha: rate 63 g ai/ha; for pest or weed control at 250 g/ha: rate 250 g ai/ha
Outline: as §1

[6] = system: sicklepod (Cassia obtusifolia, CASOB); experiment: Post-emerge test, greenhouse herbicide activity screening; conditions: Senna obtusifolia, post-emergence, 336 h, post-emerge, phytotoxicity rating 0-100 at 14 days after application, read-out: Post-emerge Herbicidal Activity CASOB; for pest or weed control at 63 g/ha: 63 g ai/ha; for pest or weed control at 250 g/ha: 250 g ai/ha
Outline: (§2)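 Each test used a mechanized track sprayer delivering 187 l/ha of acetone solution at 15–1000 g ai/ha. Post-emerge foliage at 2–3 leaves was treated with added 0.25% v/v non-ionic surfactant and bottom-watered only. Injury was assessed on day 14, where 100 means total kill.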

[7] = system: green foxtail (Setaria viridis, SETVI); experiment: as above; conditions: Setaria viridis, post-emergence, 336 h, post-emerge, phytotoxicity rating 0-100 at 14 days after application, read-out: Post-emerge Herbicidal Activity SETVI; for pest or weed control at 63 g/ha: 63 g ai/ha; for pest or weed control at 250 g/ha: 250 g ai/ha
Outline: as §2

[8] = system: redroot pigweed (Amaranthus retroflexus, AMARE); experiment: as above; conditions: Amaranthus retroflexus, post-emergence, 336 h, post-emerge, phytotoxicity rating 0-100 at 14 days after application, read-out: Post-emerge Herbicidal Activity AMARE; for pest or weed control at 63 g/ha: 63 g ai/ha; for pest or weed control at 250 g/ha: 250 g ai/ha
Outline: as §2

[9] = system: velvetleaf (Abutilon theophrasti, ABUTH); experiment: as above; conditions: Abutilon theophrasti, post-emergence, 336 h, post-emerge, phytotoxicity rating 0-100 at 14 days after application, read-out: Post-emerge Herbicidal Activity ABUTH; for pest or weed control at 63 g/ha: 63 g ai/ha; for pest or weed control at 250 g/ha: 250 g ai/ha
Outline: as §2

[10] = system: lambsquarters (Chenopodium album, CHEAL); experiment: as above; conditions: Chenopodium album, post-emergence, 336 h, post-emerge, phytotoxicity rating 0-100 at 14 days after application, read-out: Post-emerge Herbicidal Activity CHEAL; for pest or weed control at 63 g/ha: 63 g ai/ha; for pest or weed control at 250 g/ha: 250 g ai/ha
Outline: as §2

[11] = system: large crabgrass (Digitaria sanguinalis, DIGSA); experiment: as above; conditions: Digitaria sanguinalis, post-emergence, 336 h, post-emerge, phytotoxicity rating 0-100 at 14 days after application, read-out: Post-emerge Herbicidal Activity DIGSA; for pest or weed control at 63 g/ha: 63 g ai/ha; for pest or weed control at 250 g/ha: 250 g ai/ha
Outline: as §2

[12] = system: johnsongrass (Sorghum halepense, SORHA); experiment: as above; conditions: Sorghum halepense, post-emergence, 336 h, post-emerge, phytotoxicity rating 0-100 at 14 days after application, read-out: Post-emerge Herbicidal Activity SORHA; for pest or weed control at 63 g/ha: 63 g ai/ha; for pest or weed control at 250 g/ha: 250 g ai/ha
Outline: as §2

[13] = system: barnyardgrass (Echinochloa crus-galli, ECHCG); experiment: as above; conditions: Echinochloa crus-galli, post-emergence, 336 h, post-emerge, phytotoxicity rating 0-100 at 14 days after application, read-out: Post-emerge Herbicidal Activity ECHCG; for pest or weed control at 63 g/ha: 63 g ai/ha; for pest or weed control at 250 g/ha: 250 g ai/ha
Outline: as §2

[14] = system: ivyleaf morningglory (Ipomoea hederacea, IPOHE); experiment: as above; conditions: Ipomoea, post-emergence, 336 h, post-emerge, phytotoxicity rating 0-100 at 14 days after application, read-out: Post-emerge Herbicidal Activity IPOHE; for pest or weed control at 63 g/ha: 63 g ai/ha; for pest or weed control at 250 g/ha: 250 g ai/ha
Outline: as §2

| Compound | pest or weed control at 63 g/ha [1] [%] | pest or weed control at 250 g/ha [1] [%] | pest or weed control at 63 g/ha [2] [%] | pest or weed control at 250 g/ha [2] [%] | pest or weed control at 63 g/ha [3] [%] | pest or weed control at 250 g/ha [3] [%] | pest or weed control at 63 g/ha [4] [%] | pest or weed control at 250 g/ha [4] [%] | pest or weed control at 63 g/ha [5] [%] | pest or weed control at 250 g/ha [5] [%] | pest or weed control at 63 g/ha [6] [%] | pest or weed control at 250 g/ha [6] [%] | pest or weed control at 63 g/ha [7] [%] | pest or weed control at 250 g/ha [7] [%] | pest or weed control at 63 g/ha [8] [%] | pest or weed control at 250 g/ha [8] [%] | pest or weed control at 63 g/ha [9] [%] | pest or weed control at 250 g/ha [9] [%] | pest or weed control at 63 g/ha [10] [%] | pest or weed control at 250 g/ha [10] [%] | further results |
| --- | --- | --- | --- | --- | --- | --- | --- | --- | --- | --- | --- | --- | --- | --- | --- | --- | --- | --- | --- | --- | --- |
| COc1c(Cl)cc(F)c(-c2nn(C)c(C(F)(F)F)c2Cl)c1NC(=O)C=Cc1ccccc1 [Compound 7-15] | 0 | 10 | 0 | 60 | 40 | 90 | 0 | 60 | 0 | 20 | 40 | 80 | 10 | 10 | 100 | 100 | 100 | 99 | 100 | 100 | pest or weed control at 63 g/ha [11]: 0%; pest or weed control at 250 g/ha [11]: 0%; pest or weed control at 63 g/ha [12]: 0%; pest or weed control at 250 g/ha [12]: 0%; pest or weed control at 63 g/ha [13]: 0%; pest or weed control at 250 g/ha [13]: 10%; pest or weed control at 63 g/ha [14]: 70%; pest or weed control at 250 g/ha [14]: 70% |
| Nc1c(O)c(Cl)cc(F)c1N1C(=O)C2=C(CCCC2)C1=O [Compound 8-2, 2-amino-6-chloro-4-fluoro-3-tetrahydrophthalimido)phenol] | 0 | 90 | 20 | 100 | 80 | 100 | 0 | 70 | 0 | 20 | 50 | 30 | 40 | 60 | 95 | 100 | 100 | 100 | 40 | 80 | pest or weed control at 63 g/ha [11]: 30%; pest or weed control at 250 g/ha [11]: 30%; pest or weed control at 63 g/ha [12]: 10%; pest or weed control at 250 g/ha [12]: 0%; pest or weed control at 63 g/ha [13]: 20%; pest or weed control at 250 g/ha [13]: 30%; pest or weed control at 63 g/ha [14]: 50%; pest or weed control at 250 g/ha [14]: 90% |
| CC(C)Oc1c(Cl)cc(F)c(N2C(=O)C3=C(CCCC3)C2=O)c1N [Compound 8-4, N-(2-amino-4-chloro-6-fluoro-3-isopropyloxyphenyl)tetrahydrophthalimide] | 0 | 0 | 30 | 70 | 0 | 90 | 20 | 20 | 0 | 20 | 0 | 10 | 0 | 30 | 70 | 90 | 60 | 80 | 70 | 90 | pest or weed control at 63 g/ha [11]: 0%; pest or weed control at 250 g/ha [11]: 0%; pest or weed control at 63 g/ha [12]: 0%; pest or weed control at 250 g/ha [12]: 0%; pest or weed control at 63 g/ha [13]: 0%; pest or weed control at 250 g/ha [13]: 0%; pest or weed control at 63 g/ha [14]: 0%; pest or weed control at 250 g/ha [14]: 20% |

Source: patent US6355799B1, “Substituted benzene compounds, process for their preparation, and herbicidal and defoliant compositions containing them” (ISK Americas Incorporated, priority 1997, dated 2002)
